Experimental data from patent US7531713B2, “Assay for toxin induced neuronal degeneration and viability in C. elegans” (Vanderbilt University, priority 2001, dated 2009).
“Also recorded” adds a separate entry of the source.

What was measured:
[1] = tested on: ASI chemosensory neurons; experiment: 6-OHDA exposure of ASI chemosensory neurons with or without transferred DAT-1; type: in vivo, C. elegans
Description: FIGS. 6A, 6B, 6C & 6D. Transfer of the DAT gene product sensitizes non-DA neurons to 6-OHDA. (FIG. 6A), ASI chemosensory neurons made transgenic for a PDAF-7::GFP reporter to reveal these cells and their processes. (FIG. 6B), Worms in FIG. 6A treated with 6-OHDA. […] (FIG. 6C), A transgenic line where PDAF7::DAT1:GFP translational fusion is expressed in the ASI neurons, brining DAT-protein to these cells. (FIG. 6D), Animals in C, exposed to 6-OHDA.

[2] = tested on: C. elegans DA neurons; experiment: 6-OHDA assay: GFP signal in DA neurons of Pdat-1::GFP transgenic worms; type: in vivo; conditions: for Protection against 6-OHDA toxicity (GFP signal in DA neurons): coincubated with 6-OHDA, 10 mM test substance
Description: Synchronized cultures of nematodes were prepared by collecting gravid worms from one or two 100 mm 8P/NA22 plates, washing them 2 times in approximately 10 mls dH2O (2,000 rpm for 2 min), and incubating them in alkaline hypochlorite for 7-10 min. essentially as described (Emmons et al., 1979; Epstein and Shakes, 1995). Following the 17-24 hour incubation in M9 to obtain the synchronized L1's, the worms were washed once in 10 mls dH2O, spread on 8P/NA22 plates and incubated at 24° C. for 25-29 hours. The L3 larvae were collected, washed once or twice in dH2O, and added to the assay mix (to a final OD600 worms of 0.1-0.2) containing 10 mM ascorbic acid containing 10 or 50 mM 6-hydroxydopamine +/−10 mM d-amphetamine or 1 mM imipramine. The assay mix (1-2 mls) was incubated for 1 hour at 24° C., and mixed gently every 15 min. The worms were then washed in 0.5-1 ml dH2O as above and spread on NGM/OP50 plates. The worms were examined and scored 40-80 hours post-6-OHDA exposure on 2% agarose pads, using 2% NaN3 to immobilize them. For electron microscopy, the worms are fixed approximately 60 hours following exposure to 6-OHDA.
Scoring of the CEPs were performed by applying approximately 50-60 worms on the agar pad, and examined under a Zeiss M2 fluorescent dissecting scope. All 4 CEP dendrites were examined in each worm and the GFP fluorescence within the dendrites followed from the nerve ring to the tip of the nose. If any part of the dendrite was absent, the worm was considered to have altered CEPs. The DA neurons were examined in living animals using a Zeiss Axioskop with a planApo 40 and 63× objective and a Zeiss LSM410 confocal laser-scanning microscope.
Briefly, the worms are exposed to the neurotoxin (or any other candidate substance) dissolved in a liquid suspension prior to being replated on a solid plate.
Exposure to toxins is carried out by transferring the worms to a solution of water containing 10 mM Ascorbic Acid and 10-50 mM 6OHDA in a final volume of 600 μl. The worms are incubated for 1 hour at 22-24° C. with mixing in silica coated tubes. The exposing is stopped by dilution with 1 ml of water. The tube is then pulsed at 2000 rpm for 2 minutes, resuspended in water and the worms are spread on N6M plates ([…]) coated with OP50 E. coli, which the worms feed on.

[3] = molecular target: T1, CeDAT (Caenorhabditis elegans, UniProt Q03614); conditions: mammalian cells expressing CeDAT, cited from earlier work; for Sensitivity of CeDAT-mediated DA transport to antagonists/substrates: potencies comparable to human DAT
T1 sequence (Q03614 1-615): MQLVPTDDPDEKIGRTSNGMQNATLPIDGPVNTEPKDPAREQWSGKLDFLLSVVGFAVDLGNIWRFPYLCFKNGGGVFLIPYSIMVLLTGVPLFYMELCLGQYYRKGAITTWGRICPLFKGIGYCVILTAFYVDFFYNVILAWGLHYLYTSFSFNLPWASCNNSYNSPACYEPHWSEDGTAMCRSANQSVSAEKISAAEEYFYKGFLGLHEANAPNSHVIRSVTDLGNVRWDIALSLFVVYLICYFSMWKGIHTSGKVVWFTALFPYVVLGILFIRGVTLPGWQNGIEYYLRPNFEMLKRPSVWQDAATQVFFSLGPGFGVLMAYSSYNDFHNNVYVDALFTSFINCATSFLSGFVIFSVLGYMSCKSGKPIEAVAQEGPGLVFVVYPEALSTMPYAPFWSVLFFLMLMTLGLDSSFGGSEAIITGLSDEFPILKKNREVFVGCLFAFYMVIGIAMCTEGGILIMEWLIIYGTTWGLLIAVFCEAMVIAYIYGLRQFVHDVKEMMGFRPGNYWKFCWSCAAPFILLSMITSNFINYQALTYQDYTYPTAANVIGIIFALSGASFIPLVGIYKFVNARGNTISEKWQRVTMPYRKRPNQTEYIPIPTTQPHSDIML

NCCc1cc(O)c(O)cc1O [6-OHDA, 6-hydroxydopamine]
Effect of 6-OHDA on ASI neurons expressing DAT-1 ([1]; PDAF7::DAT1:GFP translational fusion line (FIG. 6D)): conferred 6-OHDA sensitivity | Effect of 6-OHDA on ASI neurons lacking DAT-1 ([1]; PDAF-7::GFP reporter line (FIG. 6B)): little or no effect | Effect of 6-OHDA on GFP signal in DA neurons ([2]; 10 mM 6-OHDA for 1 hr, visualized 72 hrs later via confocal microscopy): various stages of apparent degeneration are evident | Effect of 6-OHDA on DA neurons / reporter expression ([2]; 10-50 mM 6-OHDA, 1 hour exposure, general statements): selectively degraded; also recorded: loss of reporter expression | Neuronal sensitivity to 6-OHDA as a function of time of exposure, dat-1 deletion strain ([2]; dat-1 mutant line (FIG. 5E)): protected | Effect of 6-OHDA on GFP signal in dat-1 deleted strain ([2]; reporter transgenic line produced in a dat-1 deleted strain (FIG. 5D)): failure of toxin to effect loss of GFP signal | Neuronal sensitivity to 6-OHDA as a function of time of exposure ([2]; wildtype reporter line, CEP neurons (FIG. 5E)): time dependent loss of CEP neurons

NCCc1ccc(O)c(O)c1 [DA, Dopamine]
Km ([3]; read-out: Km of Na+- and Cl--dependent DA transport): 1.2 µM

C[C@H](N)Cc1ccccc1 [amphetamine, d-amphetamine]
Sensitivity of CeDAT-mediated DA transport to antagonists/substrates [3]: sensitive | Protection against 6-OHDA toxicity (GFP signal in DA neurons) [2]: prevents visible evidence of 6-OHDA toxicity

CN(C)CCCN1c2ccccc2CCc2ccccc21 [imipramine]
Sensitivity of CeDAT-mediated DA transport to antagonists/substrates [3]: inhibited | Protection against 6-OHDA toxicity (GFP signal in DA neurons) [2]: prevents visible evidence of 6-OHDA toxicity

CNCCC(Oc1ccccc1OC)c1ccccc1 (stereo not shown) [nisoxetine]
Sensitivity of CeDAT-mediated DA transport to antagonists/substrates [3]: inhibited
